From US20060241182A1, “Antibiotic, functional cosmetic and functional food containing levulinic acid and their derivatives” (priority 2001, published 2006)
Converted amounts (≈) assume the structure as drawn. Where two headings read alike, the source gives them in different places.

Assays:
[1] = system: Candida albicans KCTC 7753; assay: microbe, parasite or virus in culture; details: KCTC7753
Method: (§1) Wherein, all the bacteria were cultured for 12˜18 hours.
(§2) MIC of levulinic acid was measured on 96 well plates. Media and levulinic acid (200 mg/ml) mixed and diluted 1:2 fold serially. Dilutants were added on 96 well plate. Equal amount of bacterial suspension (10^6 CFU/ml) was added in each well. Wherein the inoculated bacteria were cultured at 30° C. for 12˜18 hours. The proliferations of bacteria on testing medium were measured to determine MIC against the test bacteria.

[2] = system: Salmonella typhimurium KCTC 1925; assay: microbe, parasite or virus in culture; details: Salmonella enterica
Method: as §1, §2

[3] = system: general bacteria and yeast; details: summary of Table 4
Method: (§3) Also, Bacillus cereus KCTC 1014, Bacillus subtillis IFO 3007, Escherichia coli O 157 and Escherichia coli 1039 were cultured in complex media (0.8% of nutrient broth, 1% of yeast extract, 2% of NaCl and 0.02% of dextrose) at 37° C. with shaking.
(§4) Saccharomyces cerevisiae breneri hefe rasse VIII and Hansenula anomala IFO 0149 were cultured in complex medium (0.3% of yeast extract, 0.3% of nutrient broth, 0.5% of peptone and 0.1% of glucose) at 25° C. with shaking.
as §1, §2

[4] = system: methicillin-resistant Staphylococcus aureus; assay: microbe, parasite or virus in culture
Method: (§5) Staphylococcus aureus KCTC 1621, Pseudomonas aeroginosa KCTC 1636, methicillin-resistant Staphylococcus aureus, Vancomycin resistant Enterococcus and R-Pseudomonas aeroginosa were cultured in tryptic soy broth at 37° C. with shaking.
as §1, §2

[5] = system: Pseudomonas aeruginosa KCTC 1636; assay: microbe, parasite or virus in culture; details: KCTC1636
Method: as §5, §1, §2

[6] = system: Resistant Pseudomonas aeruginosa; assay: microbe, parasite or virus in culture
Method: as §5, §1, §2

[7] = system: Staphylococcus aureus KCTC 1621; assay: microbe, parasite or virus in culture; details: KCTC1621
Method: as §5, §1, §2

[8] = system: vancomycin-resistant Enterococcus; assay: microbe, parasite or virus in culture
Method: as §5, §1, §2

drug-resistant bacteria = details: summary of Table 1
Method: as §5
(§6) Lactococcus garvieae YT-3, Edwardsiella tarda GY-01, Vibrio anguillarum YT-85805, Enterococcus faecium KCTC 3095 and tooth-decaying bacteria of Streptococcus spp. were cultured in Brain heart infusion media at 37° C. with shaking. Anaerobic tooth-decaying bacteria, Streptococcus spp., were cultured with standing in gas generating kit. Anaerobic Propionibacterium acnes KCTC 3326, was cultured in GAM media with standing in gas generating kit.
as §1, §2

[9] = system: Bacillus cereus KCTC 1014; assay: microbe, parasite or virus in culture; details: KCTC1014
Method: as §3, §1, §2

[10] = system: Bacillus subtilis IF0 3007; assay: microbe, parasite or virus in culture; details: IF03007
Method: as §3, §1, §2

[11] = system: Escherichia coli KCTC 1039; assay: microbe, parasite or virus in culture; details: KCTC1039
Method: as §3, §1, §2

[12] = system: Hansenula anomala IFO 0149; assay: microbe, parasite or virus in culture; details: IFO0149
Method: as §4, §1, §2

[13] = system: Saccharomyces cerevisiae breneri heferasse VII; assay: microbe, parasite or virus in culture
Method: as §4, §1, §2

[14] = system: pathogen infecting finny tribe and poultry; details: summary of Table 2
Method: as §6, §1, §2

Helicobacter pylori = assay: microbe, parasite or virus in culture
Method: as §1, §2
(§7) Also, in case of anaerobic bacteria, according to the same method as above, cap tubes were used in place of 96 well plates.

[15] = system: Vibrio anguillarum YT-85805; assay: microbe, parasite or virus in culture; details: YT85805
Method: as §6, §1, §2

Edwardsiella tarda GY-01 = assay: microbe, parasite or virus in culture; details: GY01
Method: as §6, §1, §2

[16] = system: Enterococcus faecium KCTC 3095; assay: microbe, parasite or virus in culture; details: KCTC3095
Method: as §6, §1, §2

[17] = system: Lactococcus garvieae YT-3; assay: microbe, parasite or virus in culture; details: YT3
Method: as §6, §1, §2

tooth-decaying bacteria = details: summary of Table 3
Method: as §6, §1, §2, §7

[18] = system: Streptococcus sobrinus coykendall 6715-1 ATCC 27352; assay: microbe, parasite or virus in culture; details: ATCC27352
Method: as §6, §1, §2, §7

[19] = system: Streptococcus mutans HS-6; assay: microbe, parasite or virus in culture; details: HS6
Method: as §6, §1, §2, §7

[20] = system: Streptococcus mutans GS-5; assay: microbe, parasite or virus in culture; details: GS5
Method: as §6, §1, §2, §7

[21] = system: Streptococcus mutans KCTC 3065; assay: microbe, parasite or virus in culture; details: KCTC3065
Method: as §6, §1, §2, §7

[22] = system: Propionibacterium acnes KCTC 3326; assay: microbe, parasite or virus in culture; details: Cutibacterium acnes, KCTC3326
Method: as §6, §1, §2, §7

[23] = system: Streptococcus mutans Ingbritt; assay: microbe, parasite or virus in culture
Method: as §6, §1, §2, §7

[24] = system: Streptococcus mutans LM-7; assay: microbe, parasite or virus in culture; details: LM7
Method: as §6, §1, §2, §7

Streptococcus mutans BHT = assay: microbe, parasite or virus in culture
Method: as §6, §1, §2, §7

[25] = system: Streptococcus salivarius ATCC 13419; assay: microbe, parasite or virus in culture; details: ATCC13419
Method: as §6, §1, §2, §7

[26] = system: Streptococcus mutans OMZ-175; assay: microbe, parasite or virus in culture; details: OMZ175
Method: as §6, §1, §2, §7

[27] = system: Streptococcus mutans OMZ-176; assay: microbe, parasite or virus in culture; details: OMZ176
Method: as §6, §1, §2, §7

[28] = system: Streptococcus doweni Mfe28; assay: microbe, parasite or virus in culture
Method: as §6, §1, §2, §7

Escherichia coli O157 = assay: MIC of levulinic acid, serial dilution on 96 well plates; type: cell-based
Method: as §3, §1, §2

[29] = system: mouse fibroblast NIH3T3 cells; details: 52 hours
Method: Cytotoxicity test of levulinic acid was accomplished by using mouse fibroblast NIH3T3 cells as testing cells. The cells were cultured in medium added 16.3 mg/ml, 12.2 mg/ml, 9.8 mg/ml and 4.9 mg/ml of levulinic acid for 52 hours, respectively.

Compound: CC(=O)CCC(=O)O [levulinic acid]
- MIC [1]: 6000 µg/mL (≈ 51.7 mM)
- MIC [2]: 370 µg/mL (≈ 3.19 mM)
- MIC against general bacteria and yeast (range over Table 4) [3]: 1.5˜6 mg/ml
- MIC [4]: 4000 µg/mL (≈ 34.4 mM)
- MIC [5]: 1500 µg/mL (≈ 12.9 mM)
- MIC [6]: 2500 µg/mL (≈ 21.5 mM)
- MIC [7]: 3500 µg/mL (≈ 30.1 mM)
- MIC [8]: 3000 µg/mL (≈ 25.8 mM)
- MIC against drug-resistant bacteria (range over Table 1) (drug-resistant bacteria): 1.5˜4.5 mg/ml
- MIC [9]: 1500 µg/mL (≈ 12.9 mM)
- MIC [10]: 1500 µg/mL (≈ 12.9 mM)
- MIC [11]: 2000 µg/mL (≈ 17.2 mM)
- MIC [12]: 3500 µg/mL (≈ 30.1 mM)
- MIC [13]: 2500 µg/mL (≈ 21.5 mM)
- MIC against pathogen infecting finny tribe and poultry (range over Table 2) [14]: 0.37˜3.5 mg/ml
- MIC (Helicobacter pylori): 0.78 µg/mL (≈ 0.00672 mM)
- MIC [15]: 3000 µg/mL (≈ 25.8 mM)
- MIC (Edwardsiella tarda GY-01): 3500 µg/mL (≈ 30.1 mM)
- MIC [16]: 4500 µg/mL (≈ 38.8 mM)
- MIC [17]: 3500 µg/mL (≈ 30.1 mM)
- MIC against tooth-decaying bacteria (range over Table 3) (tooth-decaying bacteria): 4˜5 mg/ml
- MIC [18]: 4000 µg/mL (≈ 34.4 mM)
- MIC [19]: 4000 µg/mL (≈ 34.4 mM)
- MIC [20]: 5000 µg/mL (≈ 43.1 mM)
- MIC [21]: 4000 µg/mL (≈ 34.4 mM)
- MIC [22]: 6000 µg/mL (≈ 51.7 mM)
- MIC [23]: 4000 µg/mL (≈ 34.4 mM)
- MIC [24]: 4000 µg/mL (≈ 34.4 mM)
- MIC (Streptococcus mutans BHT): 4000 µg/mL (≈ 34.4 mM)
- MIC [25]: 4000 µg/mL (≈ 34.4 mM)
- MIC [26]: 4000 µg/mL (≈ 34.4 mM)
- MIC [27]: 5000 µg/mL (≈ 43.1 mM)
- MIC [28]: 4000 µg/mL (≈ 34.4 mM)
- MIC (Escherichia coli O157): 2000 µg/mL
- Cytotoxicity: death / growth of the cells ([29]; medium added 9.8 mg/ml levulinic acid): not died, but their growth were inhibited
- Cytotoxicity: growth of the cells versus control cells ([29]; medium containing 4.9 mg/ml levulinic acid): no difference from one of control cells
- Cytotoxicity: death / growth of the cells ([29]; medium containing 12.2 mg/ml levulinic acid): died, or their growth were inhibited
- Cytotoxicity: death / growth of the cells ([29]; medium containing 16.3 mg/ml levulinic acid): died, or their growth were inhibited
